Source: patent publication US11117890B2, “Substituted isoindole allosteric EGFR inhibitors” (Hoffmann-La Roche Inc., priority 2017, dated 2021)

target: T1, Phospho-EGFR in H1975 cell line (Homo sapiens, UniProt P00533, L858R/T790M); assay: HTRF Phospo EGFR Assay (Cellular); type: cell-based; conditions: H1975 cells; 6 hours compound incubation in starving medium; HTRF anti-Phospho-EGFR readout
T1 construct: H1975 cell line was obtained from American Type Culture Collection; host or cells: H1975
T1 sequence (P00533 25-1210 T790M/L858R): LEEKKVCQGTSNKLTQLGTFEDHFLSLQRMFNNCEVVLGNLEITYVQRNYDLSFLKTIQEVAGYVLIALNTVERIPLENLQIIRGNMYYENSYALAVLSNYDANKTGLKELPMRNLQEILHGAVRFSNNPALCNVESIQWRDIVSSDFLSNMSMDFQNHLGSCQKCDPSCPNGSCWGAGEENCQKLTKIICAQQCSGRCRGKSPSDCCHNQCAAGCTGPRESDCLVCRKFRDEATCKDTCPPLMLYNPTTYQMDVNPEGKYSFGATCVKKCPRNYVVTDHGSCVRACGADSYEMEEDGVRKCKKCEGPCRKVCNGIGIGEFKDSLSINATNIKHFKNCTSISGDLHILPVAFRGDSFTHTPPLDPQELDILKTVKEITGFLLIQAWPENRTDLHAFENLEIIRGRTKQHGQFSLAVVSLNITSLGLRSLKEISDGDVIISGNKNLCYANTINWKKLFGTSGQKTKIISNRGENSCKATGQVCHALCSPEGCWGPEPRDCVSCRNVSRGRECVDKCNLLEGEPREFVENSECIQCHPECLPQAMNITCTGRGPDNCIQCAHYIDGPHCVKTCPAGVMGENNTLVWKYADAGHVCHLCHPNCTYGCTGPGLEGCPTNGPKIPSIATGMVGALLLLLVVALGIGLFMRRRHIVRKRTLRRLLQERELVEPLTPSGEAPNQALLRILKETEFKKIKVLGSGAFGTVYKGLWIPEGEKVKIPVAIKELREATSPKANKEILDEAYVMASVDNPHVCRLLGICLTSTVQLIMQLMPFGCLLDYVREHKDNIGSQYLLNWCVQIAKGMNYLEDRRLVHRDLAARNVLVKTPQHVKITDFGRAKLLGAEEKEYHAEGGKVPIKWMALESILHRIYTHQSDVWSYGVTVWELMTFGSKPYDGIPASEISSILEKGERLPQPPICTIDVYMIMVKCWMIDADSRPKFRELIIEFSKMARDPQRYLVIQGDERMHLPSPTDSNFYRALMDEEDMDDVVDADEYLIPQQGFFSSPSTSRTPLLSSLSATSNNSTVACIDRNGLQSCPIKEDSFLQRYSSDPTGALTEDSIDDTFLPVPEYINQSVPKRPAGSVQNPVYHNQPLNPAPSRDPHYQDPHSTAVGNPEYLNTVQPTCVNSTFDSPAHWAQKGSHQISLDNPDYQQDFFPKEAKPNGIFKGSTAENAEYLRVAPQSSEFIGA
Method: HTRF Phospo EGFR Assay (Cellular)
H1975 cell line was obtained from American Type Culture Collection (Manassas, Va., USA). Cells were maintained at 37° C., 5% CO2 in complete Media RPMI 1640 without phenol red containing 0.3 mg/ml glutamine, 100 IU/ml penicillin, and […] (Gibco) supplemented with 10% fetal bovine serum (FBS) (Gibco). Compounds were diluted into starving medium RPMI 1640 Media without phenol red containing 0.3 mg/ml glutamine, 100 IU/ml penicillin, and […] (Gibco).
Cells were cultured overnight in a 384-well white plate (8000 cells/well) using 8 μl of complete medium/well. Cells were washed two times with 20 μl of starving medium. Media was removed by tapping plates on tissue and subsequently 8 μl of fresh starving medium/well was added. Then 4 μl/well of the 3×compound solution, containing a half-log dilution series of the compound or DMSO in starving medium, were added to the cells. After 6 hours at 37° C., 5% CO2 cells were lysed by adding to the compound mix 4 μl/well of the supplemented lysis buffer, followed by incubation for 30 min at room temperature with shaking. Lysates were stored at −20° C. overnight. The following day plates were thawed and 2 μl of anti-Phospho-EGFR Cryptate and 2 μl of anti-Phospho-EGFR-d2 antibody solutions prepared in the detection buffer were added. The plates were then incubated for at least 4 h at room temperature before reading the fluorescence emission at 620 and 665 nm using PHERAstar FX plate reader (BMG Labtech).

`O=C(Nc1nccs1)C(c1cc(F)ccc1O)N1Cc2ccc(C#Cc3ccc(CN4CCNCC4)cc3)cc2C1=O` (racemic) [Example 29, (2RS)-2-(5-Fluoro-2-hydroxy-phenyl)-2-[1-oxo-6-[2-[4-(piperazin-1-ylmethyl)phenyl]ethynyl]isoindolin-2-yl]-N-thiazol-2-yl-acetamide] and `O=C(Nc1nccs1)C(c1cc(F)ccc1O)N1Cc2ccc(C#Cc3ccccc3)cc2C1=O` (racemic) [Example 17, (2RS)-2-(5-Fluoro-2-hydroxy-phenyl)-2-[1-oxo-6-(2-phenylethynyl)isoindolin-2-yl]-N-thiazol-2-yl-acetamide] are within 1.5-fold of each other in IC50: 8 nM for the first, 6 nM for the second.

First: Nc1ncc(C#Cc2ccc3c(c2)C(=O)N(C(C(=O)Nc2nccs2)c2cc(F)ccc2O)C3)cn1 (racemic) [Example 18, (2RS)-2-[6-[2-(2-Aminopyrimidin-5-yl)ethynyl]-1-oxo-isoindolin-2-yl]-2-(5-fluoro-2-hydroxy-phenyl)-N-thiazol-2-yl-acetamide]
Second: Nc1ccc(C#Cc2ccc3c(c2)C(=O)N(C(C(=O)Nc2nccs2)c2cccc(F)c2)C3)cn1 (racemic) [Example 4, (2RS)-2-[6-[2-(6-Amino-3-pyridyl)ethynyl]-1-oxo-isoindolin-2-yl]-2-(3-fluorophenyl)-N-thiazol-2-yl-acetamide]
The IC50 of the first is 4.5-fold lower: 2 nM for the first, 9 nM for the second. The first is the more potent here.
